Experimental data: US10870660B2, “Nitrogen-containing condensed ring compounds having dopamine D3 antagonistic effect” (Shionogi & Co., Ltd., priority 2016, dated 2020)

Test system: Male Crl: WI rats
Test: Effect of suppressing impulsivity in rat (T-maze delayed large reward choice, i.p.)
Type: in vivo
Conditions: 3 mg/kg, daily over 5 days, tested 40 min after administration, compared with vehicle control group
Description: Male Crl: WI rats were obtained at post-natal day 14 and weaning was occurred at post-natal day 21. Starting from then, the rats were housed 2-3 per cage and food-restricted (Day 1). The feeding amount was 5 g/day at post-natal day 21-28 (Day 1-8), 8.5 g/day at post-natal day 29-32 (Day 9-12), and 10 g/day at post-natal day 33-36 (Day 13-16), preventing their body weight from being 60% or less of the weight of the free feeding rats.
4 days after the beginning of the food restriction (Day 5), pellets were put on goal boxes located in the left-side and the right-side of T-maze. Then, the rats were allowed to freely explore the T-maze-box for 5 min to get habituated to the T-maze box and learn that the pellets were put on the goal boxes located in the left-side and the right-side. For 4 consecutive days from the next day (Day 6-9), one pellet (20 mg×1) was put in one side of the goal box as a small reward, and 5 pellets (20 mg×5) were put in the other side of the goal box as a large reward, and the rats were trained to learn their positions. Each rat underwent 10-trial per day trainings. […] The evaluations of the drug efficacy were started on Day 12. The compounds of the present invention were dissolved in distilled water containing 3% of 1 mol/L hydrochloric acid and administered i.p. to the trained rats to attain the dose of 1, 3 or 10 mg/kg. […]

O=C(N[C@H]1CC[C@H](CCN2CCc3sc(OCC(F)F)nc3C2)CC1)c1cccc2ncccc12 [Compound I-085]
number of choices of the large reward during total 50 trials of 5 days: significantly increased
